The values that follow come from ChEMBL document CHEMBL4325834, “De Novo Molecular Design of a Novel Octapeptide That Inhibits In Vivo Melanogenesis and Has Great Transdermal Ability” (J Med Chem, 2018).

Activity calls are given as the source filed them. The calls are words filed in the database; no cut-off is given here. Where a SMILES comes first, the peptide text is derived from it.

The nature of data set [1]: Antioxidant activity assessed as DPPH free radical scavenging activity at 80 uM after 30 mins relative to control. The format is functional.
Data set [2] concerns the target T1, Tyrosinase (Agaricus bisporus, UniProt O42713).
T1 sequence (O42713 whole entry): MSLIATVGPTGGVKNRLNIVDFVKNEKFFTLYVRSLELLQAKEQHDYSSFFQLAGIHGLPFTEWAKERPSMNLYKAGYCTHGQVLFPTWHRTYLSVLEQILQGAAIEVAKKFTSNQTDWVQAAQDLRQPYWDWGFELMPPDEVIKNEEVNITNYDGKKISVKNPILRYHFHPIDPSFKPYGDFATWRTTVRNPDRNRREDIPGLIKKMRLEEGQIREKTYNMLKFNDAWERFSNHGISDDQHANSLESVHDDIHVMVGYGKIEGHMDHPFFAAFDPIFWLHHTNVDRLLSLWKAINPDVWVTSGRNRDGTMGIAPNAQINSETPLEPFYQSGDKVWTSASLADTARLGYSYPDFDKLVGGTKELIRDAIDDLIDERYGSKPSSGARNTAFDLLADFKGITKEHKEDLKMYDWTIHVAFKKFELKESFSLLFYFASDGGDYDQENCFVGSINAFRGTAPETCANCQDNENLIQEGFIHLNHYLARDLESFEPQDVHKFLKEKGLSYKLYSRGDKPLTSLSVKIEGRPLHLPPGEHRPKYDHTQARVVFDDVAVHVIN
As to the kind of experiment: Inhibition of mushroom tyrosinase using L-dopa as substrate assessed as reduction in dopachrome production after 20 mins by spectrophotometry.

Data set [3] in a line: Hemolytic activity against human erythrocytes assessed as amount of hemoglobin released from lysed cells up to 150 uM relative to control. The following applies: read-out: Activity. Type of data set: ADME, cell-based, Erythrocyte.
For data set [4], the system named is B16. In words: Cytotoxicity against mouse B16 cells up to 150 uM by MTT assay relative to control. The format is cell-based.
Data set [5] has as its system LAD2. In words: Proinflammatory activity in human LAD2 cells assessed as increase in mast-cell degranulation by measuring beta-hexosaminidase release at 0.5 mM preincubated for 30 mins followed 4-nitrophenyl-N-acetyl-beta-D-glucosaminide substrate addition and measured after 90 mins by fluorescence-based microplate reader analysis relative to control. As to conditions: lad2, 1.5 h, 500 µM. Type of data set: ADME.

In data set [6] the test system is LAD2. In words: Proinflammatory activity in human LAD2 cells assessed as increase in mast-cell degranulation by measuring beta-hexosaminidase release at 1 mM preincubated for 30 mins followed 4-nitrophenyl-N-acetyl-beta-D-glucosaminide substrate addition and measured after 90 mins by fluorescence-based microplate reader analysis relative to control. The following applies: lad2, 1.5 h, 1000 µM. The format is ADME.

For data set [7], the system named is LAD2. In words: Proinflammatory activity in human LAD2 cells assessed as increase in mast-cell degranulation by measuring beta-hexosaminidase release at 2 mM preincubated for 30 mins followed 4-nitrophenyl-N-acetyl-beta-D-glucosaminide substrate addition and measured after 90 mins by fluorescence-based microplate reader analysis relative to control. As to conditions: lad2, 1.5 h, 2000 µM. Type of data set: ADME.

In data set [8] the target is T2, Tyrosinase (Mus musculus) (UniProt P11344).
T2 sequence (whole entry): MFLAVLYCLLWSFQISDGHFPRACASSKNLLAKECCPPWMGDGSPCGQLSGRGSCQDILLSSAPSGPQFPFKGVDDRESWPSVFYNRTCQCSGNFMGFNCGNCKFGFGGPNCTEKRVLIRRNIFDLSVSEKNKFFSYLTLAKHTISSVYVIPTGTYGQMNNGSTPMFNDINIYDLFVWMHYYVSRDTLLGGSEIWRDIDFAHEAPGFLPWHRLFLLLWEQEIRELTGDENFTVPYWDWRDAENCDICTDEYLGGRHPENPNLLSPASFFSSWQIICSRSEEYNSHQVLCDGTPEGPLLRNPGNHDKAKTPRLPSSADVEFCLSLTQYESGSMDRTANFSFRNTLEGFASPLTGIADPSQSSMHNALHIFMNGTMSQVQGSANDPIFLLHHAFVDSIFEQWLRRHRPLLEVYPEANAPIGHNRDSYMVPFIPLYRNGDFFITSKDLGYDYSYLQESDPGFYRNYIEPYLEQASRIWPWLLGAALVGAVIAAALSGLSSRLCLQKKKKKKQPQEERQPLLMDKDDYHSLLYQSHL
In words: Inhibition of TYR activity in mouse B16 cells assessed as effect on pallet after exfoliation at 20 uM preincubated for 72 hrs followed L-dopa substrate addition and measured after 4 hrs by fluorescence microscopy. The format is cell-based.

Data set [9] has as its target T2, Tyrosinase (Mus musculus). As to the kind of experiment: Inhibition of TYR activity in mouse B16 cells assessed as melanin levels post exfoliation at 20 uM after 72 hrs by spectrophotometric analysis relative to control. Type of data set: cell-based. More on the design: scale not given: the % may be the effect or the level left.
The test system of data set [10] is B16. As to the kind of experiment: Downregulation of TYR protein expression in mouse B16 cells after 72 hrs by Western blot analysis. Type of data set: functional, cell-based.
For data set [11], the system named is B16. In words: Downregulation of MITF protein expression in mouse B16 cells after 72 hrs by Western blot analysis. Type of data set: functional, cell-based.
Data set [12] addresses MAP kinase p38 (Mus musculus) (UniProt P47811+O08911+Q9WUI1+Q9Z1B7). As to the kind of experiment: Effect on p38 phosphorylation in mouse B16 cells up to 80 uM after 72 hrs by Western blot analysis. The format is cell-based.
Data set [13] is filed under the species Mus musculus. As to the kind of experiment: Effect on ERK phosphorylation in mouse B16 cells up to 80 uM after 72 hrs by Western blot analysis. The format is cell-based.
Data set [14] relates to Cavia porcellus. In words: Prophylactic protection against UVB-induced pigmentation in Dunkin-Hartley guinea pig pigmentation model assessed as increase in whitening administered topically 6 hrs before UV radiation every day for 2 weeks. Type of data set: functional, organism-based.
Data set [15] relates to Cavia porcellus. In words: Anti-melanogenic activity in UVB-induced pigmentation Dunkin-Hartley guinea pig model assessed as inhibition of UV-induced melanin production administered topically using PG solvent 6 hrs before UV radiation every day for 2 weeks by Fontana-Masson-staining based assay. The format is functional, organism-based.
The nature of data set [16]: Toxicity in Dunkin-Hartley guinea pig model of UVB-induced pigmentation assessed as abnormal morphological changes in epidermis at 1 mM to 2 mM administered topically 6 hrs before UV radiation every day for 2 weeks by Fontana-Masson-staining based assay. As to conditions: in vivo, topical_or_ocular, 1000 µM. Also noted: species or system Cavia porcellus.
The nature of data set [17]: Toxicity in Dunkin-Hartley guinea pig model of UVB-induced pigmentation assessed as abnormal morphological changes in dermis at 1 mM to 2 mM administered topically 6 hrs before UV radiation every day for 2 weeks by Fontana-Masson-staining based assay. The format is tissue-based, Cavia porcellus. As to conditions: in vivo, topical_or_ocular, 1000 µM.
Data set [18] in a line: Drug uptake in skin epidermis of brown guinea pig at 2 mM dosed topically after 30 mins using FITC-labelled compound by H and E staining-based fluorescence microscopy. Type of data set: ADME, organism-based, Cavia porcellus. The following applies: in vivo, topical_or_ocular, 0.5 h, 2000 µM.
The nature of data set [19]: Drug uptake in skin basal layer of brown guinea pig at 2 mM dosed topically after 1 hr using FITC-labelled compound by H and E staining-based fluorescence microscopy. Type of data set: ADME, organism-based, Cavia porcellus. The following applies: in vivo, topical_or_ocular, 2000 µM.
Data set [20] deals with T2, Tyrosinase (Mus musculus). In words: Inhibition of TYR activity in mouse B16 cells assessed as reduction in melanin levels at 20 uM after 24 hrs by spectrophotometric analysis relative to control. The format is cell-based.
The target in data set [21] is T3, Tyrosinase (Agaricus bisporus) (UniProt O42713).
T3 sequence (whole entry): T1 sequence (O42713 whole entry)
In words: Potency index, ratio of IC50 for arbutin to IC50 for test compound for inhibition of mushroom tyrosinase using L-dopa as substrate assessed as reduction in dopachrome production after 20 mins by spectrophotometry.

Data set [22] deals with Cavia porcellus. In words: Anti-melanogenic activity in UVB-induced pigmentation Dunkin-Hartley guinea pig model assessed as inhibition of UV-induced melanin production in epidermis basal layer at 1 to 2 mM administered topically using CP hydrogel 6 hrs before UV radiation every day for 2 weeks by Fontana-Masson-staining based assay. Type of data set: functional, organism-based.

Consider `CC(C)[C@H](NC(=O)[C@H](CCCNC(=N)N)NC(=O)[C@H](Cc1ccccc1)NC(=O)[C@H](CS)NC(=O)[C@H](CCCNC(=N)N)NC(=O)[C@@H](N)[C@@H](C)O)C(=O)N[C@@H](CS)C(=O)N[C@@H](CO)C(=O)O` (H-TRCFRVCS-OH), for which the Activity worked out at 97% in data set [1]; 10% in data set [4]; 7.15% in data set [5]; 9.41% in data set [6]; 10.51% in [7]; 52.2% in [9]. Moreover, the Activity result in data set [14] was “Dose-dependent effect”; in [15], “Dose-dependent effect”; in [16] it was “Non-Toxic”; in [17], “Non-Toxic”. Besides, the IC50 in [2] stood at 53 µM. For the same compound, in [3], the hemolysis turned out to be 1%. In addition, the result in [8] and in data set [22] was Active. For the same compound, the inhibition entry in [10], in [11] and in [20] was “Active” throughout. In addition, the result in [12] and in data set [13] was inactive. Further, the Drug uptake entry in data set [18] and in [19] was “Active” throughout. For the same compound, the Ratio IC50 in [21] was determined as 10.
